Where a name gives a salt, the structure may show the parent alone.
Target: recombinant active human PAI-1 (Homo sapiens (Human), UniProt P05121)
Experiment: β-trypsin screening assay for PAI-1 inhibitors;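 also: fluorogenic readout with PAI-1 and β-trypsin at 10:1 molar ratio, untreated PAI-1 wells set as 100% PAI-1 activity and β-trypsin alone as 0%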
Type: biochemical
Conditions: not given

recombinant active human PAI-1, sequence (P05121 24-402): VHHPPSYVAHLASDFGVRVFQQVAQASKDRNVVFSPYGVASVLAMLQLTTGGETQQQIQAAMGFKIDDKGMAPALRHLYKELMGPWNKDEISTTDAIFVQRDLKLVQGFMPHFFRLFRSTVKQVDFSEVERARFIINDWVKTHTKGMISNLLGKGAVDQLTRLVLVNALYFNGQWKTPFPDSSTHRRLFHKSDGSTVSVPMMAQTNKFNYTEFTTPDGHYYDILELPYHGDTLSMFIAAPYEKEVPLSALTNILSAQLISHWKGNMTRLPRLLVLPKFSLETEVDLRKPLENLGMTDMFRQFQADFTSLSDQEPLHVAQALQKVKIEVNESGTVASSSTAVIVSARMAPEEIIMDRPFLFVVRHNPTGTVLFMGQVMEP

Molecule	screening hit: restoration of β-trypsin activity
Cl.NCCc1ccc(O)c(O)c1 [DOPAMINE HYDROCHLORIDE]	demonstrate PAI-1 inhibitor activity

Same assay, conditions: 10 μM compound; hit = more than 3 standard deviations above control

Molecule	screening hit: restoration of β-trypsin activity
C=C1c2cccc(O)c2C(=O)C2=C(O)[C@]3(O)C(=O)C(C(N)=O)=C(O)[C@@H](N(C)C)[C@@H]3[C@@H](O)[C@H]12 [METHACYCLINE HYDROCHLORIDE]	demonstrate PAI-1 inhibitor activity
CHLORAMPHENICOL HEMISUCCINATE	demonstrate PAI-1 inhibitor activity
CCOC(=O)C1=C(C)N=C(C)/C(=C(/O)OCC)C1c1ccccc1/C=C/C(=O)OC(C)(C)C (stereo not drawn) [LACIDIPINE]	demonstrate PAI-1 inhibitor activity
CC(C)=CCCC1(C)C=Cc2c(O)c3c(c(CC=C(C)C)c2O1)OC12C(=CC4CC1C(C)(C)OC2(C/C=C(/C)C(=O)O)C4O)C3=O (stereo not drawn) [DIHYD[…]]	demonstrate PAI-1 inhibitor activity
CC(C)C[C@H](NC(=O)[C@@H](O)[C@H](N)Cc1ccccc1)C(=O)O [BESTATIN]	demonstrate PAI-1 inhibitor activity
C=C1/C(=C\C=C2/CCC[C@@]3(C)[C@@H]2CC[C@H]3[C@H](C)/C=C/[C@@H](O)C2CC2)C[C@@H](O)C[C@H]1O [CALCIPOTRIOL]	demonstrate PAI-1 inhibitor activity
C[C@]12CCC(=O)C=C1C=C[C@@H]1[C@@H]2CC[C@@]2(C)[C@H]1CC[C@@]21CCC(=O)O1 [CANRENONE]	demonstrate PAI-1 inhibitor activity
COc1cc(C(=O)NS(=O)(=O)c2ccccc2C)ccc1Cc1cn(C)c2ccc(NC(=O)OC3CCCC3)cc12 [ZAFIRLUKAST]	demonstrate PAI-1 inhibitor activity
CC(C(=O)[O-])c1ccc(CC2CCCC2=O)cc1.[Na+] (stereo not drawn) [LOXOPROFEN SODIUM]	demonstrate PAI-1 inhibitor activity
CCCCCCCCCOc1ccc2[nH]cc(CCN)c2c1 [5-Nonyloxytryptamine]	demonstrate PAI-1 inhibitor activity
CCN(CC)CCCC(C)Nc1c2ccc(Cl)cc2nc2ccc(OC)cc12 (stereo not drawn) [QUINACRINE HYDROCHLORIDE]	demonstrate PAI-1 inhibitor activity
O=C(O[C@@H]1Cc2c(O)cc(O)cc2O[C@@H]1c1ccc(O)c(O)c1)c1cc(O)c(O)c(O)c1 [EPICATECHIN MONOGALLATE]	demonstrate PAI-1 inhibitor activity
O=C(O)c1cc(O)c(=O)c2c(O)c(O)ccc2c1 [7-DESHYDROXYPYROGALLIN-4-CARBOXYLIC ACID]	demonstrate PAI-1 inhibitor activity
C=CC1=C(C(=O)O)N2C(=O)[C@@H](NC(=O)C(NOCC(=O)O)c3csc(N)n3)[C@H]2SC1 (stereo partly drawn) [CEFIXIME TRIHYDRATE]	demonstrate PAI-1 inhibitor activity
Clc1ccc(CONC(Cn2ccnc2)c2ccc(Cl)cc2Cl)c(Cl)c1.O=[N+]([O-])O (stereo not drawn) [OXICONAZOLE NITRATE]	demonstrate PAI-1 inhibitor activity
CC(C)c1ccc2c(c1)c(SC(C)(C)C)c(CC(C)(C)C(=O)O)n2Cc1ccc(Cl)cc1 [1H-Indole-2-propanoic acid, 1-[(4-chlorophenyl)methyl]-3-[(1,1-dimethylethyl)thio]-Alpha,Alpha-dimethyl-5-(1-methylethyl)-]	demonstrate PAI-1 inhibitor activity
CCOC(=O)N1CCC(=C2c3ccc(Cl)cc3CCc3cccnc32)CC1 [LORATADINE]	demonstrate PAI-1 inhibitor activity
O=c1c(O)cccc2cc(O)c(O)c(O)c12 [PURPUROGALLIN]	demonstrate PAI-1 inhibitor activity
CN(C)C(=S)SSC(=S)N(C)C [NSC 1771]	demonstrate PAI-1 inhibitor activity
COc1ccc(-c2coc3cc(O)ccc3c2=O)c(O)c1O [KOPARIN]	demonstrate PAI-1 inhibitor activity
CN1CCN(CC(=O)N2c3ccccc3C(=O)Nc3cccnc32)CC1 [PIRENZEPINE HYDROCHLORIDE]	demonstrate PAI-1 inhibitor activity
Cl.N[C@H]1C(O)O[C@H](CO)[C@@H](O)[C@@H]1O (stereo partly drawn) [GLUCOSAMINE HYDROCHLORIDE]	demonstrate PAI-1 inhibitor activity
NC[C@H](O)c1ccc(O)c(O)c1 [NOREPINEPHRINE]	demonstrate PAI-1 inhibitor activity
NC(CO)C(=O)NNCc1ccc(O)c(O)c1O (stereo not drawn) [BENSERAZIDE HYDROCHLORIDE]	demonstrate PAI-1 inhibitor activity
Oc1cc(O)c2c(c1)O[C@H](c1cc(O)c(O)c(O)c1)[C@H](O)C2 [EPIGALLOCATECHIN]	demonstrate PAI-1 inhibitor activity
CCOC(=O)c1ccc(OC(=O)CCCCCN=C(N)N)cc1.CS(=O)(=O)O [GABEXATE MESYLATE]	demonstrate PAI-1 inhibitor activity
O=C1[C@H](CC[C@H](O)c2ccc(F)cc2)[C@@H](c2ccc(O)cc2)N1c1ccc(F)cc1 [EZETIMIBE]	demonstrate PAI-1 inhibitor activity

Molecule	screening hit: restoration of β-trypsin activity
CCN(CC)CCNC(=O)c1ccc(N)cc1 [PROCAINAMIDE HYDROCHLORIDE]	demonstrate PAI-1 inhibitor activity
CC[C@@]1(O)C[C@@H]2CN(CCc3c([nH]c4ccccc34)[C@](C(=O)OC)(c3cc4c(cc3OC)N(C)[C@@H]3[C@]45CCN4CC=C[C@@](CC)(C(O)[C@]3(O)C(N)=O)[C@H]45)C2)C1.O=S(=O)(O)O (stereo partly drawn) [VINDESINE SULFATE]	demonstrate PAI-1 inhibitor activity
CC(=O)Oc1cccc(C(=O)O)c1OC(C)=O [DIPYROCETYL]	demonstrate PAI-1 inhibitor activity
CC1(C)S[C@@H]2[C@H](NC(=O)[C@H](NC(=O)N3CCNC3=O)c3ccccc3)C(=O)N2[C@H]1C(=O)[O-].[Na+] [AZLOCILLIN SODIUM]	demonstrate PAI-1 inhibitor activity
O=C(O)C1CC([C@@H]2CCCCN2)CN2CCCCC12 (stereo partly drawn) [APHYLLIC ACID]	demonstrate PAI-1 inhibitor activity
N=C1C=CC(=C(c2ccc(N)cc2)c2ccc(N)cc2)C=C1 [PARAROSANILINE PAMOATE]	demonstrate PAI-1 inhibitor activity
CCN(CC)C(=O)N1CCN(C)CC1 [DIETHYLCARBAMAZINE CITRATE]	demonstrate PAI-1 inhibitor activity
O=C(Oc1cc(O)cc2c1C[C@@H](OC(=O)c1cc(O)c(O)c(O)c1)[C@@H](c1cc(O)c(O)c(O)c1)O2)c1cc(O)c(O)c(O)c1 [EPIGALLOCATECHIN 3,5-DIGALLATE]	demonstrate PAI-1 inhibitor activity
CC[C@@]1(O)C[C@H](O[C@H]2C[C@H](N(C)C)[C@H](O)[C@H](C)O2)c2c(cc3c(c2O)C(=O)c2c(O)cccc2C3=O)[C@H]1C(=O)OC [AKLAVINE HYDROCHLORIDE]	demonstrate PAI-1 inhibitor activity
NCC1CCC(C(=O)Oc2ccc(CCC(=O)O)cc2)CC1 (stereo not drawn) [CETRAXATE HCl]	demonstrate PAI-1 inhibitor activity
COc1c(Cl)c(C)c2c(c1Cl)OC(=O)c1c(C)c(Cl)c(O)c(Cl)c1O2 [DIPLOICIN]	demonstrate PAI-1 inhibitor activity
CCN(CC)CCOc1ccc(C(=C(Cl)c2ccccc2)c2ccccc2)cc1 [CLOMIPHENE CITRATE]	demonstrate PAI-1 inhibitor activity
O=c1c(-c2cc(O)c(O)c(O)c2)coc2cc(O)c(O)c(O)c12 [IRIGENOL]	demonstrate PAI-1 inhibitor activity
COc1ccc2c(=O)c(-c3cc4c(cc3OC)OCO4)coc2c1 [CUNEATIN METHYL ETHER]	demonstrate PAI-1 inhibitor activity
CC(CCC(=O)O)[C@H]1CCC2C3CCC4CCCC[C@]4(C)C3CC[C@@]21C (stereo partly drawn) [URSOCHOLANIC ACID]	demonstrate PAI-1 inhibitor activity
C=C[C@H]1CN2CC[C@H]1C[C@H]2[C@H](OC(=O)OCC)c1ccnc2ccc(OC)cc12 [QUININE ETHYL CARBONATE]	demonstrate PAI-1 inhibitor activity
COc1ccc(CCN(C)CCC[C@](C#N)(c2ccc(OC)c(OC)c2)C(C)C)cc1OC [Benzeneacetonitrile, Alpha-[3-[[2-(3,4-dimethoxyphenyl)ethyl]methylamino]propyl]-3,4-dimethoxy-Alpha-(1-methylethyl)-, (R)-]	demonstrate PAI-1 inhibitor activity
Cc1onc(-c2ccccc2)c1-c1ccc(S(N)(=O)=O)cc1 [VALDECOXIB]	demonstrate PAI-1 inhibitor activity
CC12CC3CC(C)(C1)CC(N)(C3)C2 [MEMANTINE HYDROCHLORIDE]	demonstrate PAI-1 inhibitor activity
CN1CCCC(n2nc(Cc3ccc(Cl)cc3)c3ccccc3c2=O)CC1 (stereo not drawn) [AZELASTINE HYDROCHLORIDE]	demonstrate PAI-1 inhibitor activity
COc1cc(-c2coc3cc(OCc4ccccc4)c(OC)c(O)c3c2=O)cc(OCc2ccccc2)c1OC [IRIGENIN, DIBENZYL ETHER]	demonstrate PAI-1 inhibitor activity
CCOc1ccc(C(=O)c2ccc(O)c(O)c2O)cc1 [2,3,4-TRIHYDROXY-4′-ETHOXYBENZOPHENONE]	demonstrate PAI-1 inhibitor activity
O=C(O[C@H]1Cc2c(O)cc(O)cc2O[C@H]1c1cc(O)c(=O)c2c(O)c(O)cc([C@@H]3Oc4cc(O)cc(O)c4C[C@@H]3O)c2c1)c1cc(O)c(O)c(O)c1 [THEAFLAVIN MONOGALLATES]	demonstrate PAI-1 inhibitor activity
O=c1c(-c2ccccc2)coc2cc(O)cc(O)c12 [5,7-DIHYDROXYISOFLAVONE]	demonstrate PAI-1 inhibitor activity
CC(=O)Oc1cc(-c2coc3cc(OC(C)=O)c(OC(C)=O)c(OC(C)=O)c3c2=O)cc(OC(C)=O)c1OC(C)=O [IRIGINOL HEXAACEATATE]	demonstrate PAI-1 inhibitor activity
NC(=O)OCC(COC(N)=O)c1ccccc1 [Felbamate]	demonstrate PAI-1 inhibitor activity

Reference: patent US9120744B2, “Plasminogen activator inhibitor-1 inhibitors and methods of use thereof to modulate lipid metabolism” (THE REGENTS OF THE UNIVERSITY OF MICHIGAN, priority 2007, dated 2015)
